Columns and labels:
AMBEL (Ragweed, Common) = experiment: Preemergence herbicidal evaluation; assay type: in vivo, Ambrosia artemisifolia; conditions: rated 4-5 weeks after treatment; for AMBEL rating: preemergence, 0-9 scale
In short: (§1)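 Preemergence soil application of compound, sprayed in aqueous acetone at rates equivalent to about 0.0156 to 0.500 kg per hectare onto freshly sown cups. Plant response was judged by eye on a 0-9 scale four to five weeks later.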

SETVI (Foxtail, Green) [1] = experiment: Postemergence herbicidal evaluation; assay type: in vivo, Setaria viridis; conditions: for Herbicidal rating SETVI: postemergence
In short: (§2)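 Scores (0–9) reflect plant stand, vigor, malformation, size, chlorosis and general appearance relative to control, read 4 to 5 weeks after treatment and averaged where tests were repeated. Application: about 0.0156–0.500 kg/ha sprayed at 40 psi onto two-week seedlings.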

SETVI (Foxtail, Green) [2] = experiment: Preemergence herbicidal evaluation; assay type: in vivo, Setaria viridis; conditions: rated 4-5 weeks after treatment; for SETVI rating: preemergence, 0-9 scale
In short: as §1

[3] = tested on: TRZAWR (Wheat, Winter, cv Riband); experiment: Postemergence herbicidal evaluation; assay type: in vivo, Triticum aestivum; conditions: for Herbicidal rating TRZAWR: postemergence
In short: as §2

[4] = tested on: SAGPY (Arrowhead (Pygmaea)); experiment: Postemergence weed control under flooded paddy conditions; assay type: in vivo, Sagittaria pygmaea; conditions: postemergence weeds
In short: (§3)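 Containers holding 3–5 cm weeds and rice at 1.5–2.5 leaves are flooded to 1.5–3 cm above soil. Compound in 50/50 v/v aqueous/acetone is then added directly to the water, about 0.0313–0.500 kg/ha. Plants are kept in the greenhouse and rated 0–9 visually at 3–4 weeks.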

ORYSAT (Rice, Tebonnet) = experiment: Postemergence herbicidal evaluation; assay type: in vivo, Oryza sativa, (L.) Tebonnet; conditions: for Herbicidal rating ORYSAT: postemergence
In short: as §2

[5] = tested on: GLXMAW (Soybean, Williams); experiment: Postemergence herbicidal evaluation; assay type: in vivo, Glycine max, (L.) Merr. cv Williams; conditions: for Herbicidal rating GLXMAW: postemergence
In short: as §2

GALAP (Galium) = experiment: Preemergence herbicidal evaluation; assay type: in vivo, Galium aparine; conditions: rated 4-5 weeks after treatment; for GALAP rating: preemergence, 0-9 scale
In short: as §1

[6] = tested on: ECHORC (Watergrass (Calif.)); experiment: Postemergence weed control under flooded paddy conditions; assay type: in vivo, Echinochloa oryzoides; conditions: postemergence weeds
In short: as §3

CYPIR (Rice Flatsedge) = experiment: Preemergence weed control under flooded paddy conditions; assay type: in vivo, Cyperus iria; conditions: rated 3-4 weeks after treatment
In short: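 Silt loam, seeds in top 0.5 cm; flood held 1.5-3 cm; test cpd as acetone/water 50/50 into flood water, ~0.0313-0.500 kg/ha a.i.; greenhouse 3-4 wk; visual 0-9 score vs control.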

[7] = tested on: CHEAL (Lambsquarters, Common); experiment: Postemergence herbicidal evaluation; assay type: in vivo, Chenopodium album; conditions: for Herbicidal rating CHEAL: postemergence
In short: as §2

ZEAMX (Corn, Field) = experiment: Postemergence herbicidal evaluation; assay type: in vivo, Zea mays; conditions: for Herbicidal rating ZEAMX: postemergence
In short: as §2

ABUTH (Velvetleaf) = experiment: Postemergence herbicidal evaluation; assay type: in vivo, Abutilon theophrasti; conditions: for Herbicidal rating ABUTH: postemergence
In short: as §2

CYPSE (Flatsedge) = experiment: Postemergence weed control under flooded paddy conditions; assay type: in vivo, Cyperus serotinus; conditions: postemergence weeds
In short: as §3

[8] = rate 0.0625 kg/ha, 3-4 weeks after treatment
[9] = rate 0.1250 kg/ha, 3-4 weeks after treatment
[10] = rate 0.2500 kg/ha, 3-4 weeks after treatment
[11] = Rate 0.2500 kg/ha, rated 3 to 4 weeks after treatment
[12] = Rate 0.5000 kg/ha, rated 3 to 4 weeks after treatment

C[C@@H](C(=O)O)N1C(=O)CS/C1=N/c1cc(-n2c(=O)cc(C(F)(F)F)n(C)c2=O)c(F)cc1Cl [Compound 51, 2-{{2-Chloro-5-[3,6-dihydro-3-methyl-2,6-dioxo-4-(trifluoromethyl)-1(2H)-pyrimidinyl]-4-fluoro-phenyl}imino}-α-methyl-4-oxo-3-thiazolidineacetic acid, L-]
4.0: Preemergence herbicidal rating AMBEL (AMBEL (Ragweed, Common); rate 0.0625 kg/ha) | Postemergence herbicidal rating TRZAWR ([3]; Rate 0.0158 kg/ha) | Postemergence herbicidal rating ORYSAT (ORYSAT (Rice, Tebonnet); Rate 0.0630 kg/ha)
3.0: Preemergence herbicidal rating SETVI (SETVI (Foxtail, Green) [2]; rate 0.0625 kg/ha) | Herbicidal rating CYPIR (CYPIR (Rice Flatsedge); 0.1250 kg/ha)
7.5: Postemergence herbicidal rating ZEAMX (ZEAMX (Corn, Field); Rate 0.0315 kg/ha) | Postemergence herbicidal rating ZEAMX (ZEAMX (Corn, Field); Rate 0.0630 kg/ha)
1.0: Preemergence herbicidal rating SETVI (SETVI (Foxtail, Green) [2]; rate 0.0156 kg/ha)
2.0: Postemergence herbicidal rating ORYSAT (ORYSAT (Rice, Tebonnet); Rate 0.0158 kg/ha) | Herbicidal rating CYPIR (CYPIR (Rice Flatsedge); 0.0625 kg/ha)
9.0: Preemergence herbicidal rating AMBEL (AMBEL (Ragweed, Common); rate 0.1250 kg/ha) | Preemergence herbicidal rating AMBEL (AMBEL (Ragweed, Common); rate 0.2500 kg/ha) | Postemergence herbicidal rating SETVI (SETVI (Foxtail, Green) [1]; Rate 0.0315 kg/ha) | Postemergence herbicidal rating SETVI (SETVI (Foxtail, Green) [1]; Rate 0.0630 kg/ha) | Preemergence herbicidal rating SETVI (SETVI (Foxtail, Green) [2]; rate 0.2500 kg/ha) | Preemergence herbicidal rating GALAP (GALAP (Galium); rate 0.2500 kg/ha) | Postemergence herbicidal rating CHEAL ([7]; Rate 0.0158 kg/ha) | Postemergence herbicidal rating CHEAL ([7]; Rate 0.0315 kg/ha) | Postemergence herbicidal rating CHEAL ([7]; Rate 0.0630 kg/ha) | Postemergence herbicidal rating ABUTH (ABUTH (Velvetleaf); Rate 0.0158 kg/ha) | Postemergence herbicidal rating ABUTH (ABUTH (Velvetleaf); Rate 0.0315 kg/ha) | Postemergence herbicidal rating ABUTH (ABUTH (Velvetleaf); Rate 0.0630 kg/ha)
3.5: Postemergence herbicidal rating ORYSAT (ORYSAT (Rice, Tebonnet); Rate 0.0315 kg/ha)
6.0: Preemergence herbicidal rating SETVI (SETVI (Foxtail, Green) [2]; rate 0.1250 kg/ha) | Postemergence herbicidal rating GLXMAW ([5]; Rate 0.0158 kg/ha) | Herbicidal rating CYPIR (CYPIR (Rice Flatsedge); 0.2500 kg/ha)
7.0: Postemergence herbicidal rating SETVI (SETVI (Foxtail, Green) [1]; Rate 0.0158 kg/ha) | Postemergence herbicidal rating TRZAWR ([3]; Rate 0.0630 kg/ha) | Preemergence herbicidal rating GALAP (GALAP (Galium); rate 0.1250 kg/ha) | Postemergence herbicidal rating ZEAMX (ZEAMX (Corn, Field); Rate 0.0158 kg/ha)
8.0: Postemergence herbicidal rating GLXMAW ([5]; Rate 0.0315 kg/ha) | Postemergence herbicidal rating GLXMAW ([5]; Rate 0.0630 kg/ha)
0.0: Preemergence herbicidal rating AMBEL (AMBEL (Ragweed, Common); rate 0.0156 kg/ha) | Preemergence herbicidal rating AMBEL (AMBEL (Ragweed, Common); rate 0.0313 kg/ha) | Preemergence herbicidal rating SETVI (SETVI (Foxtail, Green) [2]; rate 0.0313 kg/ha) | Herbicidal rating SAGPY [4, 8] | Herbicidal rating SAGPY [4, 9] | Herbicidal rating SAGPY [4, 10] | Preemergence herbicidal rating GALAP (GALAP (Galium); rate 0.0156 kg/ha) | Preemergence herbicidal rating GALAP (GALAP (Galium); rate 0.0313 kg/ha) | Herbicidal rating ECHORC [6, 8] | Herbicidal rating ECHORC [6, 9] | Herbicidal rating ECHORC [6, 10] | Herbicidal rating CYPSE (CYPSE (Flatsedge); [8]) | Herbicidal rating CYPSE (CYPSE (Flatsedge); [9]) | Herbicidal rating CYPSE (CYPSE (Flatsedge); [10])
5.5: Postemergence herbicidal rating TRZAWR ([3]; Rate 0.0315 kg/ha)
5.0: Preemergence herbicidal rating GALAP (GALAP (Galium); rate 0.0625 kg/ha)

CN1C(=O)C(CC(=O)NS(=O)(=O)c2ccccc2)SC1=Nc1cc(-n2c(=O)cc(C(F)(F)F)n(C)c2=O)c(F)cc1Cl (stereo not drawn) [Compound 102, 2-{{2-Chloro-5-[3,6-dihydro-3-methyl-2,6-dioxo-4-(trifluoromethyl)-1(2H)-pyrimidinyl]-4-fluorophenyl}imino}-3-methyl-4-oxo-N-(phenylsulfonyl)-5-thiazolidineacetamide]
2.5: Herbicidal rating ORYSAT (ORYSAT (Rice, Tebonnet); rate 0.0156 kg/ha)
7.0: AMBEL rating (AMBEL (Ragweed, Common); 0.5000 kg/ha) | Herbicidal rating CHEAL ([7]; rate 0.1250 kg/ha) | Herbicidal rating ABUTH (ABUTH (Velvetleaf); rate 0.0156 kg/ha)
7.5: Herbicidal rating GLXMAW ([5]; rate 0.1250 kg/ha)
4.0: AMBEL rating (AMBEL (Ragweed, Common); 0.2500 kg/ha) | Herbicidal rating SETVI (SETVI (Foxtail, Green) [1]; rate 0.1250 kg/ha) | GALAP rating (GALAP (Galium); 0.5000 kg/ha) | Herbicidal rating CHEAL ([7]; rate 0.0313 kg/ha)
6.5: Herbicidal rating ZEAMX (ZEAMX (Corn, Field); rate 0.1250 kg/ha)
5.5: Herbicidal rating ZEAMX (ZEAMX (Corn, Field); rate 0.0625 kg/ha)
9.0: Herbicidal rating ABUTH (ABUTH (Velvetleaf); rate 0.0313 kg/ha) | Herbicidal rating ABUTH (ABUTH (Velvetleaf); rate 0.0625 kg/ha) | Herbicidal rating ABUTH (ABUTH (Velvetleaf); rate 0.1250 kg/ha)
6.0: Herbicidal rating GLXMAW ([5]; rate 0.0625 kg/ha) | CYPIR herbicidal effect rating (CYPIR (Rice Flatsedge); 0.5000 kg/ha) | Herbicidal rating CHEAL ([7]; rate 0.0625 kg/ha)
3.0: Herbicidal rating TRZAWR ([3]; rate 0.0156 kg/ha) | Herbicidal rating TRZAWR ([3]; rate 0.0313 kg/ha) | Herbicidal rating ORYSAT (ORYSAT (Rice, Tebonnet); rate 0.0313 kg/ha) | Herbicidal rating ORYSAT (ORYSAT (Rice, Tebonnet); rate 0.0625 kg/ha) | Herbicidal rating ORYSAT (ORYSAT (Rice, Tebonnet); rate 0.1250 kg/ha) | Herbicidal rating CHEAL ([7]; rate 0.0156 kg/ha)
0.0: AMBEL rating (AMBEL (Ragweed, Common); 0.0156 kg/ha) | AMBEL rating (AMBEL (Ragweed, Common); 0.0313 kg/ha) | AMBEL rating (AMBEL (Ragweed, Common); 0.0625 kg/ha) | Herbicidal rating SETVI (SETVI (Foxtail, Green) [1]; rate 0.0156 kg/ha) | SETVI rating (SETVI (Foxtail, Green) [2]; 0.0625 kg/ha) | SETVI rating (SETVI (Foxtail, Green) [2]; 0.2500 kg/ha) | Herbicidal rating SAGPY [4, 11] | Herbicidal rating SAGPY [4, 12] | GALAP rating (GALAP (Galium); 0.0156 kg/ha) | GALAP rating (GALAP (Galium); 0.0625 kg/ha) | Herbicidal rating ECHORC [6, 11] | Herbicidal rating CYPSE (CYPSE (Flatsedge); [11]) | Herbicidal rating CYPSE (CYPSE (Flatsedge); [12])
2.0: Herbicidal rating SETVI (SETVI (Foxtail, Green) [1]; rate 0.0625 kg/ha) | Herbicidal rating ECHORC [6, 12] | CYPIR herbicidal effect rating (CYPIR (Rice Flatsedge); 0.2500 kg/ha)
5.0: Herbicidal rating GLXMAW ([5]; rate 0.0156 kg/ha) | Herbicidal rating GLXMAW ([5]; rate 0.0313 kg/ha) | Herbicidal rating ZEAMX (ZEAMX (Corn, Field); rate 0.0313 kg/ha)
1.0: Herbicidal rating SETVI (SETVI (Foxtail, Green) [1]; rate 0.0313 kg/ha) | SETVI rating (SETVI (Foxtail, Green) [2]; 0.0156 kg/ha) | SETVI rating (SETVI (Foxtail, Green) [2]; 0.0313 kg/ha) | SETVI rating (SETVI (Foxtail, Green) [2]; 0.5000 kg/ha) | GALAP rating (GALAP (Galium); 0.0313 kg/ha) | GALAP rating (GALAP (Galium); 0.2500 kg/ha)
4.5: Herbicidal rating TRZAWR ([3]; rate 0.0625 kg/ha) | Herbicidal rating TRZAWR ([3]; rate 0.1250 kg/ha) | Herbicidal rating ZEAMX (ZEAMX (Corn, Field); rate 0.0156 kg/ha)
